Data set [1] can be described thus: Extinction coefficient from calibration curve. The class given is physicochemical. Particulars: extinction coefficient calculated from calibration curve.
Data set [2] is described as follows: Alpha value: gradient of dielectric constant against dye concentration (polarisability). It is filed as physicochemical. Particulars: gradient of dielectric constant vs dye concentration; low value desirable. Here is the method: (§1) a) Dye mixtures using the novel dyes are prepared to obtain neutral black samples that can be used in EWD. b) Solubility is measured by filtering an over-saturated sample of dissolved dye, measuring the resulting absorbance value, and extrapolating the concentration using a calibration curve and Beer Lambert Law (Absorbance=∈cl, where ∈ is the extinction coefficient of the material, calculated from a calibration curve, c is concentration, and l is the path length of the measurement). c) The absorbance is measured using a Hitachi U3310 spectrophotometer with a 5 micron path length under a single pass transmission measurement condition. d) The impact of the dye on the electrical properties is measured by comparing the dielectric constant of a series of formulations with increasing dye content. There is a linear relationship between dye concentration and dielectric constant, the gradient of which is indicative of the polarisability of the dye. This gradient value is denoted as an ‘alpha value’. A low alpha value indicates a smaller change in dielectric constant as dye concentration increases, and is desirable. High alpha values indicate that the dye has a large impact on the dielectric constant of the solvent, which will likely have a negative impact on the behaviour of the fluid in an electrowetting display pixel.

The nature of data set [3]: Solubility from absorbance of a filtered over-saturated dye sample. It is filed as physicochemical. Particulars: concentration extrapolated via calibration curve and Beer Lambert Law. The method, then:
as §1

For `CCCCCCCCCCCCCC1(C)N(CCCCCCCC)c2cccc3c(/N=N/c4ccc(/N=N/c5ccc(CCCC)cc5)c5ccccc45)ccc(c23)N1CCCCCCCC` (stereo not shown) [Dye 2, 6-((E)-(4-((E)-(4-butylphenyl)diazenyl)naphthalen-1-yl)diazenyl)-2-methyl-1,3-dioctyl-2-tridecyl-2,3-dihydro-1H-perimidine], the εmax in data set [1] is reported as 40107. Also, the Alpha value in data set [2] amounted to 2.9360. Further, in data set [3], the Solubility % is reported as 19.53%.
Consider `CCCCCCCCCCCCCC1(C)Nc2cccc3c(/N=N/c4ccc(/N=N/c5ccc(CCCC)cc5)c5ccccc45)ccc(c23)N1` (stereo not shown) [Dye 1, 6-((E)-(4-((E)-(4-Butylphenyl)diazenyl)naphthalen-1-yl)diazenyl)-2-methyl-2-tridecyl-2,3-dihydro-1H-perimidine], for which the melting point was 79 to 81 °C. Moreover, the Solubility % in data set [3] is on record as 0.22%.
In the case of `CCCCc1ccc(/N=N/c2cc(OCC(CC)CCCC)c(/N=N/c3ccc(N(CC(CC)CCCC)CC(CC)CCCC)cc3C)cc2C)cc1` (stereo not shown) [Dye 14, 4-((E)-(4-((E)-(4-butylphenyl)diazenyl)-2-(2-ethylhexyloxy)-5-methylphenyl)diazenyl)-N,N-bis(2-ethylhexyl)-3-methylaniline], the εmax in data set [1] is 38954. The Solubility % in data set [3] was 28.66%.

These data come from patent publication US20150355456A1, “ELECTROWETTING FLUIDS” (MERCK PATENT GMBH, priority 2013, published 2015).
